Assays:
PD-1/PD-L1 interaction = target: T1, PD-1/PD-L1 interaction (Homo sapiens, UniProt Q9NZQ7); assay: PD-1/PD-L1 Homogenous Time-Resolved Fluorescence (HTRF) binding assay; details: Biochemical PD1/PD-L1 inhibition
T1 construct: Tag1 or Tag2 (undisclosed kit tag); purchased CisBio 63ADK000CPAPEG
Protocol: PD-L1 Enzyme Assay: Homogenous Time-Resolved Fluorescence (HTRF) Binding Assay
All binding studies were performed using PD-1/PD-L1 Binding Assay Kit from CisBio (Catalog #63ADK000CPAPEG), according to the manufacturer's protocol. The interaction between Tag1-PD-1 and […] was detected by anti-Tag1-Eu^3+ (HTRF donor) and anti-Tag2-XL665 (HTRF acceptor). When the donor and acceptor antibodies were brought to close proximity due to PD-1 and PD-L1 binding, excitation of the donor antibody triggered fluorescent resonance energy transfer (FRET) towards the acceptor antibody, which in turn emitted specifically at 665 nm. This specific signal is positively proportional to PD-1/PD-L1 interaction. The compounds blocking PD-1/PD-L1 interaction will cause a reduction in HTRF signal. The necessary reagents were mixed in the following order: 2 μl compounds (or diluents buffer), 4 μl PD-L1 protein, 4 μl PD-1 protein. After an incubation of 15 minutes, 5 μl of anti-Tag1-Eu^3+ and 5 μl of anti-Tag2-XL665 were added. The plate was sealed and incubated at RT for 1 h. The fluorescence emission was read at two different wavelengths (665 nm and 620 nm) on a BMG PheraStar® multiplate reader. Results were calculated from the 665 nm and 620 nm fluorescence signal and expressed in HTRF ratio=(665 nm/620 nm)×[…].

[1] = Metabolic stability in liver microsomes (dog); type: in vitro ADME; details: dog liver microsomes 0.5 mg/mL, compound 1 μM, NADPH, up to 30 min
Protocol: (§1) Metabolic Stability in Liver Microsomes
(§2) Procedure: Potassium phosphate buffer (66.7 mM, pH 7.4) containing mouse or rat or dog or monkey or human liver microsomes (0.5 mg/mL) was pre-incubated separately with compound (1 μM) and positive control (verapamil, 1 μM) in a 37° C. water bath for 5 min. The reactions were initiated by adding 20 μL of 10 mM NADPH. Reactions without NADPH (0 and 30 min) were also incubated to rule out non-NADPH metabolism or chemical instability in the incubation buffer. All reactions were terminated using 200 μL of ice-cold acetonitrile containing internal standard at 0, 5, 15 and 30 min. The vials were centrifuged at 3000 rpm for 15 min. The reaction mixtures (obtained from the above studies) were extracted, processed and analyzed by LC-MS [Shimadzu SIL LC series (Kyoto, Japan) was coupled to an API-4000 Mass Spectrometer (MDS Sciex, Toronto, Canada)] to monitor the disappearance of compound.

[2] = Metabolic stability in liver microsomes (human); type: in vitro ADME; details: human liver microsomes 0.5 mg/mL, compound 1 μM, NADPH, up to 30 min
Protocol: as §1, §2

CYP3A4 = target: T2, CYP3A4 (Homo sapiens, UniProt P08684); assay: CYP inhibition in human liver microsomes (CYP3A4); type: in vitro ADME; details: hydroxylation of midazolam, read-out: predicted IC50, CYP 3A4
T2 construct: assessed in human liver microsomes (procured from GIBCO Invitrogen); tissue GIBCO Invitrogen; host or cells: human liver microsomes
T2 sequence (P08684 whole entry): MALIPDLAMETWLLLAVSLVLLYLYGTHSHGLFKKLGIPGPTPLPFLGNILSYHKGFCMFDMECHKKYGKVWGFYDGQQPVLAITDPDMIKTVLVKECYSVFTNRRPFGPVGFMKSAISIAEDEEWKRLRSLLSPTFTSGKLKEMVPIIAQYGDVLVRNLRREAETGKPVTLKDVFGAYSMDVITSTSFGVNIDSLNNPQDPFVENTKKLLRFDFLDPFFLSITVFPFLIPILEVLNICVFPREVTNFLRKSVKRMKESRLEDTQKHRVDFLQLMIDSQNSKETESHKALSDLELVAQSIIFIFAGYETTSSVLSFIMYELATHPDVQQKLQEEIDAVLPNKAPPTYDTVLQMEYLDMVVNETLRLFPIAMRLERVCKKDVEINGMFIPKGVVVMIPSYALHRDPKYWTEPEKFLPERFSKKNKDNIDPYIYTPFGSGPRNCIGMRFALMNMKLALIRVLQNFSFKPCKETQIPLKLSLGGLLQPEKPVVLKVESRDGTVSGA
Protocol: (§3) CYP inhibition potential of compound was assessed in human liver microsomes (procured from GIBCO Invitrogen) against CYP3A4, 2D6, 2C9, 2C19 and 1A2 in the following sequential steps. Standard reaction mixture (final volume 300 μL) contained […] potassium phosphate buffer (pH 7.4), protein (0.1, 0.25, 0.5, 0.5 and 0.5 mg/mL concentration for CYP3A4, 2D6, 2C9 2C19 and 1A2 respectively) and compound (at eight different concentration levels ranging from […], added as 0.9 μL DMSO solution with a final DMSO concentration of […]). The mixtures were pre-incubated at 37±1° C. for 5 min. The reaction (in duplicate) was initiated by addition of 30 μL of NADPH (10 mM). Reaction was terminated at 10 min by adding 300 μL of acetonitrile. The activity of liver microsomes was confirmed with positive controls i.e., monitoring the hydroxylation of midazolam for CYP 3A4, hydroxylation of bufuralol for CYP 2D6, hydroxylation of diclofenac for CYP 2C9, hydroxylation of omeprazole for CYP2C19 and O-Deethylation for CYP 1A2. The reaction mixtures (obtained from the above studies) were extracted, processed and analyzed by LC-MS [Shimadzu SIL LC series (Kyoto, Japan) was coupled to an API-4000 Mass Spectrometer (MDS Sciex, Toronto, Canada)].

CYP 2D6 = target: T3, CYP 2D6 (Homo sapiens, UniProt P10635); assay: CYP inhibition in human liver microsomes (CYP2D6); type: in vitro ADME; details: hydroxylation of bufuralol, read-out: predicted IC50, CYP 2D6
T3 construct: assessed in human liver microsomes (procured from GIBCO Invitrogen); tissue GIBCO Invitrogen; host or cells: human liver microsomes
T3 sequence (P10635 whole entry): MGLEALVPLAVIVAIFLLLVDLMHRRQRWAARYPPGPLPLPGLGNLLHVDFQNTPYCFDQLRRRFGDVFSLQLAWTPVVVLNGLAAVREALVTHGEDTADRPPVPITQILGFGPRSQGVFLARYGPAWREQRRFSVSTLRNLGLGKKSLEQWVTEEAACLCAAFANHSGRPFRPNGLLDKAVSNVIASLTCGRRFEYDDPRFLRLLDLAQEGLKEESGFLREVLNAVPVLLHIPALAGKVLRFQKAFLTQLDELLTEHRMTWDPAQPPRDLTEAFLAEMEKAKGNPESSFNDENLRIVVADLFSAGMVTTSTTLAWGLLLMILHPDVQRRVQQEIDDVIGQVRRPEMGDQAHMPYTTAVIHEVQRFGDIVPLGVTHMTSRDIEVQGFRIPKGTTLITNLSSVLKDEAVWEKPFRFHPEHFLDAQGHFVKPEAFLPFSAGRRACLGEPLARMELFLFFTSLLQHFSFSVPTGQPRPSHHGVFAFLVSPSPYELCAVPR
Protocol: as §3

[3] = tested on: RENCA renal cancer cell line; assay: In vivo efficacy in RENCA renal model; design: species or system Balb/c mice; details: oral dosing
Protocol: In Vivo Efficacy of Compound-45 in RENCA Renal Model (FIG. 1):
RENCA renal cancer cell line was procured from ATCC, USA and grown in the recommended media and culture conditions. Cells in the exponential phase were mixed with equal volume of matrigel in a 1:1 ratio, followed by implantation of 1×10^6 cells/100 μl subcutaneously on the right flank of immunocompetant Balb/c mice (1 site/mouse). Tumor cells were engrafted at the site of injection within 1-2 weeks of implantation and treatment was initiated by randomizing mice into study groups of N=10, when the average tumor volume reached 100 mm^3. Tumor bearing mice were treated with Vehicle (oral), Vehicle (IP), Compound B (orally at 30 mg/kg dose, twice daily) or Anti-PD-L1 mAb (Clone 10F.9G2, BioXcell) intraperitoneally at 0.1 mg/mouse, Q4D. Tumor volume and mouse body weight was measured three times per week during treatment, until the tumor volume reached a maximum of 2000 mm^3. Tumor volume (mm^3) was calculated using the formula—(tumor length)×(tumor width)^2/2. For pharmacokinetic parameters of Compound B, plasma and tumors were isolated at the end of the study and analyzed. Tumor growth inhibition was calculated after normalizing the tumor volume on a given day to that on day 1 based on the formula below: % TGI=[1−(Treatment TVFinal−Treatment TVinitial)/(Vehicle TVFinal−Vehicle TVinitial)]*100

T1 sequence (Q9NZQ7 19-238 limits assumed): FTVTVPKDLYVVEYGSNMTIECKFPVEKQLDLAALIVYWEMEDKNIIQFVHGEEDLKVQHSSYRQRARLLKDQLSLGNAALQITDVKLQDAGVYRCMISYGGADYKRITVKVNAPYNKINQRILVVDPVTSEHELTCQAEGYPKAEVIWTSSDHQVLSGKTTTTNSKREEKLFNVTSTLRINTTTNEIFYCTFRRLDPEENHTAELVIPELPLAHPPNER

- IC50 (PD-1/PD-L1 interaction): < 100 nM
- Metabolic stability in liver microsomes [1]: > 80%
- Metabolic stability in liver microsomes [2]: > 80%
- IC50 (CYP3A4): > 10 µM
- IC50 (CYP 2D6): > 10 µM
Compound: COc1nc(OCc2cccc(-c3ccccc3)c2C)nc(OC)c1CN1CCCC[C@H]1C(=O)O [Compound 45, (S)-1-((4,6-dimethoxy-2-((2-methyl-[1,1′-biphenyl]-3-yl)methoxy)pyrimidin-5-yl)methyl)piperidine-2-carboxylic acid]
- body weight during the dosing regimen ([3]; RENCA tumor bearing Balb/c mice): no significant body weight reduction
- efficacy in RENCA renal model (tumor growth) ([3]; syngeneic Balb/c mice, 30 mg/kg twice daily, comparator Anti-PD-L1 mAb 0.1 mg/mouse IP Q4D): better or similar efficacy compared to PD-L1 monoclonal antibody
